Tests used:
Aurora kinase A (AURKA) = target: T1, Aurora kinase A (AURKA) (Homo sapiens, UniProt O14965); test: Luciferase assay for AURKA in HeLa LgBit (AURKA-HiBit KI) cell line; assay type: cell-based; settings: HeLa LgBit (AURKA-HiBit KI) cells, measured after 12 hours
T1 construct: endogenous in cells; host or cells: HeLa LgBit (AURKA-HiBit KI), CRISPR/Cas9 knock-in at the endogenous AURKA locus
T1 sequence (O14965 1-403): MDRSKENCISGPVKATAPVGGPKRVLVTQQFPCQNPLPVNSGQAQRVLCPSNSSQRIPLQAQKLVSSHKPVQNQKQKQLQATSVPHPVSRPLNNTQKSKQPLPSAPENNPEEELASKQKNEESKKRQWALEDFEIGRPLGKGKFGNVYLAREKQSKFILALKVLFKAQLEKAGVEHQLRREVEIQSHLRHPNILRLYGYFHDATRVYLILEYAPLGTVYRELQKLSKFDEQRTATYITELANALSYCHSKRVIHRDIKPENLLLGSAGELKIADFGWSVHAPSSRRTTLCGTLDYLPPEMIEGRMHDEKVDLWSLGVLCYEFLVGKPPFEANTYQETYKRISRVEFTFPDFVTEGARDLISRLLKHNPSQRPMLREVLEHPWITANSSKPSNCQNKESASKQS
In short: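 HeLa cells stably expressing LgBit, with HiBit knocked in at the C-terminus of endogenous AURKA; 3×10^4 cells seeded, 18 h, then Endurazine substrate 2 h. Compounds tested at 10 nM or 100 nM; luminescence read at 470-480 nm after 12 h as real-time read-out.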

NCI-H446 cell line = test: Cell viability assay for NCI-H446 cell line; assay type: cell-based; settings: Homo sapiens, NCI-H446, 120 h; H446 cells, 5 days culture, EZ-Cytox; read-out: IC50 value (Level)
In short: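 H446 cells seeded 24 h before treatment with compound in 3-fold dilutions, 1000 to 0.15 nM, then cultured 5 days at 37 °C, 5% CO2 in RPMI 1640/10% FBS. Viability read with EZ-Cytox (4 h) as absorbance at 450 nm.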

luminescence value (Level) (Aurora kinase A (AURKA); 10 nM compound): B (B is 0.3 to 0.5)
luminescence value (Level) (Aurora kinase A (AURKA); 100 nM compound): A (A is <0.2)
SMILES: COc1cc(N2CCN(CCC3CCN(NC(=O)c4ccc(Nc5ncc(F)c(Nc6ccc(C(=O)Nc7ccccc7Cl)cc6)n5)cc4)CC3)CC2)c(F)cc1C1CCC(=O)NC1=O (stereo not drawn) [Compound 118, N-(2-chlorophenyl)-4-((2-((4-((4-(2-(4-(4-(2,6-dioxopiperidin-3-yl)-2-fluoro-5-methoxyphenyl)piperazin-1-yl)ethyl)piperidin-1-yl)carbamoyl)phenyl)amino)-5-fluoropyrimidin-4-yl)amino)benzamide]
IC50 (NCI-H446 cell line): 50 to 100 nM

— patent US20260226071A1, “2, 4-DIANILINOPYRIMIDINE-BASED AURORA-A KINASE SELECTIVE DEGRADATION INDUCING COMPOUNDS” (UPPTHERA, INC., priority 2023, published 2026)
